Laboratory results as given in patent US20250206738A1, “WRN INHIBITORS” (Nimbus Wadjet, Inc., priority 2023, published 2025).

Tests used:
[1] = target: T1, human Werner helicase (WRN, Uniprot Q14191, amino acids 517-1235 with L1074F point mutation; WRN-BV08) (Homo sapiens, UniProt Q14191, L1074F); experiment: WRN (BV08) ADP-Glo assay; type: biochemical; details: WRN-BV08 (aa 517-1235, L1074F); read-out: ADP-Glo_hWRN_IC50
T1 construct: Uniprot Q14191, amino acids 517-1235 with L1074F point mutation; 8xHis (C, cleaved yes); TEV cleavage site (ENLYFQG) (C, cleaved yes); made in house; host or cells: Sf9 insect cells (baculovirus, pFastBac)
T1 sequence (Q14191 with tags, fused parts or gaps L1074F): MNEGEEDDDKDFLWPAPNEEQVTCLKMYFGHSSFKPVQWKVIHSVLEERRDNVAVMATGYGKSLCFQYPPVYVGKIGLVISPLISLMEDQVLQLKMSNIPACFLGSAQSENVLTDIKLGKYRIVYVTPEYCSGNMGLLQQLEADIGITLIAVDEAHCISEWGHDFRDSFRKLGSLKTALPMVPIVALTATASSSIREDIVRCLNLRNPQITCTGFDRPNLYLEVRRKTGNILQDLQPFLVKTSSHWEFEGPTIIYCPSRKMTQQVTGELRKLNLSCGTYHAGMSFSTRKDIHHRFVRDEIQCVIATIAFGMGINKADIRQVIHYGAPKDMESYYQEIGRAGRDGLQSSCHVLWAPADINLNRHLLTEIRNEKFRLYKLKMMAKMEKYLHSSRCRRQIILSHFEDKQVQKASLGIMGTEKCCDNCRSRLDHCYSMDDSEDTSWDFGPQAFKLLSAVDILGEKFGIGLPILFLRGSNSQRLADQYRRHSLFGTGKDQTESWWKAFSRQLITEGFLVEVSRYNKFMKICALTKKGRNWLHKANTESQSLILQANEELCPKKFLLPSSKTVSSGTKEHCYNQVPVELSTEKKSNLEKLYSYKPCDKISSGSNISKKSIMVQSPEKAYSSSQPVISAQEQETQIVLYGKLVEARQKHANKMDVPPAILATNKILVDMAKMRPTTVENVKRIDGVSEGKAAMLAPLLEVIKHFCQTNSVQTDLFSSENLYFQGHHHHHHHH
Summary of the method: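 WRN 517-1235 (L1074F, untagged, Sf9-expressed), 0.15 nM, preincubated with compound 15 min at 25 °C, then 60 min with […] and 0.1 nM DNA duplex in Bicine pH 7.5, 1 mM MgCl2, 1% DMSO. ADP-Glo luminescence; % inhibition vs NSC-617145 control, four-parameter IC50 fit.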

[2] = tested on: p21 induction in HCT 116 cells; experiment: p21 induction in cells (In-Cell Western, p21/GAPDH ratio); type: cell-based; details: Homo sapiens, HCT-116, 24 h, 24 h compound incubation, read-out: P21_EC50
Protocol: Example 3: Method for Determining Effect on p21 Induction in Cells
The colon carcinoma cell line HCT 116 was obtained from ATCC and cultured in growth medium consisting of Mccoy's 5A Medium (Gibco 16600108) supplemented with 10% FBS (Transgene FS201-02) and 100 units/mL penicillin-streptomycin (Gibco 15140122) and maintained at 37° C. under 5% CO2. On the day of seeding, 2,000 cells in 30 μL of culture media were plated per well to Poly-D-Lysine 384 Well Black Clear Plates (Biocoat 356663) and incubated overnight at 37° C. under 5% CO2. The following day, compounds were serially diluted in DMSO for a total of 11 test concentrations. The typical starting concentration of compounds was 10 μM with 2-fold dilutions. Next, 150 nL of diluted compound was added in duplicate to the assay plate, using an Echo 655 (Labcyte). The plate was centrifuged at 500 RPM for 1 min and then incubated at 37° C. under 5% CO2 for 24 h. After 24h, medium was removed, and cells were fixed by adding 40 μL of 4% paraformaldehyde solution to each well and incubated for 20 min at room temperature. The plate was then washed 4 times with 100 μL per well of wash buffer (PBS with 0.1% Tween-20) using a microplate washer. Next, 30 μL of ice-cold methanol was added to each well and the plate was incubated at −20° C. for 10 min. The plate was washed 4 times with 100 μL per well of wash buffer by a microplate washer, then 30 μL per well of blocking buffer (Intercept PBS blocking buffer (LI-COR 927-70001) with 0.05% Tween-20) was added and the plate was incubated at room temperature with shaking for 2h. Next, to each test well, 20 μL of primary antibody solution (p21 Waf1/CIP (12D1) RabbitmAb (Cell Signaling Technologies 2947) diluted 1:1000 and GAPDH (D4C6R) Mouse mAb (Cell Signaling Technologies 97166) diluted 1:2000 in blocking buffer) was added and the plate was placed at 4° C., overnight. The following day, the plate was washed 5 times with 100 μL per well of wash buffer using a microplate washer for 5 min. 20 μL per well of secondary antibody (IRDye 680CW Goat anti-Mouse IgG (H+L) (LI-COR 926-68070) diluted 1: 2000 in Blocking Buffer and IRDye 800CW Goat anti-Rabbit IgG (H+L) (LI-COR 926-32211) diluted 1: 2000 in Blocking Buffer) was then added and the plate was stored for 2h in the dark at room temperature with shaking. The plate was then washed 4 times with 100 μL per well of wash buffer again using a microplate washer. Finally, the p21 signal and the GAPDH signal were quantified using a LI-COR Odyssey CLx Imager machine reading at 800 nm and 700 nm, respectively. Each plate contained DMSO control (low control) and an internal reference WRN inhibitor (high control) respectively. For quantitation, the 800 nm/700 nm ratio was calculated for each well to give fold p21 induction and then percent activation for each compound well was calculated as follows (100×(ratio cpd well−ratio low control)/(ratio high control−ratio low control)). EC50 values for each compound were generated after non-linear regression curve fitting using commercially available software.

| IC50 [1] [µM] | EC50 [2] [µM] | Compound |
| --- | --- | --- |
| 0.005 to 0.05 | 0.5 to 2 | CCc1c(N2CCN(C(=O)c3c(O)ccc4ncoc34)CC2)c(=O)c2sc(-c3ccnc(OC)c3)nc2n1CC(=O)NC12CC(C(F)(F)F)(C1)C2 [I-37, 2-(5-ethyl-6-(4-(6-hydroxybenzo[d]oxazole-7-carbonyl)piperazin-1-yl)-2-(2-methoxypyridin-4-yl)-7-oxothiazolo[4,5-b]pyridin-4(7H)-yl)-N-(3-(trifluoromethyl)bicyclo[1.1.1]pentan-1-yl)acetamide] |
| 0.1 to 0.5 | > 5 | CCc1c(N2CCN(C(=O)c3ncnc(C)c3O)CC2)c(=O)n2nc(-c3ccnc(OC)c3)nc2n1CC(=O)N[C@H]1CC[C@H](C(F)(F)F)CC1 [I-242, 2-(5-ethyl-6-(4-(5-hydroxy-6-methylpyrimidine-4-carbonyl)piperazin-1-yl)-2-(2-methoxypyridin-4-yl)-7-oxo-[1,2,4]triazolo[1,5-a]pyrimidin-4(7H)-yl)-N-((1r,4r)-4-(trifluoromethyl)cyclohexyl)acetamide] |
| 0.005 to 0.05 | 0.5 to 2 | CCc1c(N2CCN(C(=O)c3ncnc(C)c3O)[C@H]3CC[C@@H]32)c(=O)c2nc(N(C)C)cnc2n1CC(=O)NC12CC(C3CCCC3)(C1)C2 [I-224, N-(3-cyclopentylbicyclo[1.1.1]pentan-1-yl)-2-(2-(dimethylamino)-6-ethyl-7-((1S,6S)-5-(5-hydroxy-6-methylpyrimidine-4-carbonyl)-2,5-diazabicyclo[4.2.0]octan-2-yl)-8-oxopyrido[2,3-b]pyrazin-5(8H)-yl)acetamide] |
| 0.005 to 0.05 | > 5 | CCc1c(N2CCN(C(=O)c3ncnc(C)c3O)[C@H]3CC[C@@H]32)c(=O)c2nc(N(C)C)cnc2n1CC(=O)NC1CC2(CCCC2)C1 [I-230, 2-(2-(dimethylamino)-6-ethyl-7-((1S,6S)-5-(5-hydroxy-6-methylpyrimidine-4-carbonyl)-2,5-diazabicyclo[4.2.0]octan-2-yl)-8-oxopyrido[2,3-b]pyrazin-5(8H)-yl)-N-(spiro[3.4]octan-2-yl)acetamide] |
| 0.005 to 0.05 | 2 to 5 | CCc1c(N2CCN(C(=O)c3ncnc(C)c3O)CC2)c(=O)n2nc(C3=CCOCC3)nc2n1CC(=O)NC12CC(C3CC3)(C1)C2 [I-32, N-(3-cyclopropylbicyclo[1.1.1]pentan-1-yl)-2-(2-(3,6-dihydro-2H-pyran-4-yl)-5-ethyl-6-(4-(5-hydroxy-6-methylpyrimidine-4-carbonyl)piperazin-1-yl)-7-oxo-[1,2,4]triazolo[1,5-a]pyrimidin-4(7H)-yl)acetamide] |
| 0.1 to 0.5 | > 5 | CCc1c(N2CCN(C(=O)c3ncnc(C)c3O)CC2)c(=O)n2nc(C3=CCOCC3)nc2n1CC(=O)NC12COC(C(F)(F)F)(C1)C2 [I-26, 2-(2-(3,6-dihydro-2H-pyran-4-yl)-5-ethyl-6-(4-(5-hydroxy-6-methylpyrimidine-4-carbonyl)piperazin-1-yl)-7-oxo-[1,2,4]triazolo[1,5-a]pyrimidin-4(7H)-yl)-N-(1-(trifluoromethyl)-2-oxabicyclo[2.1.1]hexan-4-yl)acetamide] |
| 0.005 to 0.05 | 0.5 to 2 | CCc1c(N2CCN(C(=O)c3c(O)ccc4ncoc34)CC2)c(=O)n2nc(N(C)C)nc2n1CC(=O)NC12CC(C(C)C)(C1)C2 [I-43, 2-(2-(dimethylamino)-5-ethyl-6-(4-(6-hydroxybenzo[d]oxazole-7-carbonyl)piperazin-1-yl)-7-oxo-[1,2,4]triazolo[1,5-a]pyrimidin-4(7H)-yl)-N-(3-isopropylbicyclo[1.1.1]pentan-1-yl)acetamide] |
| 0.005 to 0.05 | 0.5 to 2 | CCc1c(N2CCN(C(=O)c3ncnc(C)c3O)[C@H]3CC[C@@H]32)c(=O)c2nc(N(C)C)cnc2n1CC(=O)NC12CC(C3CC3)(C1)C2 [I-232, N-(3-cyclopropylbicyclo[1.1.1]pentan-1-yl)-2-(2-(dimethylamino)-6-ethyl-7-((1S,6S)-5-(5-hydroxy-6-methylpyrimidine-4-carbonyl)-2,5-diazabicyclo[4.2.0]octan-2-yl)-8-oxopyrido[2,3-b]pyrazin-5(8H)-yl)acetamide] |
